Measured values published in paper PMC10511816 (The Journal of Biological Chemistry, 2023).
Where “and” joins values, the source holds several entries; their conditions need not be identical. Identical values can stand only once.

Tests used:
[1] = target: T1, XO type enzyme (xanthine oxidase) (Bos taurus, UniProt P80457); assay: time-dependent inhibition of uric acid production from xanthine by XO (A295); assay type: biochemical, bovine; conditions: for 50% inhibition time of uric acid production / stop time of uric acid production: pH 8.5, 25 °C
T1 construct: Bovine milk was obtained from the animal farm of the Nippon Veterinary and Life Science University; from tissue; host or cells: bovine milk
T1 sequence (P80457 whole entry): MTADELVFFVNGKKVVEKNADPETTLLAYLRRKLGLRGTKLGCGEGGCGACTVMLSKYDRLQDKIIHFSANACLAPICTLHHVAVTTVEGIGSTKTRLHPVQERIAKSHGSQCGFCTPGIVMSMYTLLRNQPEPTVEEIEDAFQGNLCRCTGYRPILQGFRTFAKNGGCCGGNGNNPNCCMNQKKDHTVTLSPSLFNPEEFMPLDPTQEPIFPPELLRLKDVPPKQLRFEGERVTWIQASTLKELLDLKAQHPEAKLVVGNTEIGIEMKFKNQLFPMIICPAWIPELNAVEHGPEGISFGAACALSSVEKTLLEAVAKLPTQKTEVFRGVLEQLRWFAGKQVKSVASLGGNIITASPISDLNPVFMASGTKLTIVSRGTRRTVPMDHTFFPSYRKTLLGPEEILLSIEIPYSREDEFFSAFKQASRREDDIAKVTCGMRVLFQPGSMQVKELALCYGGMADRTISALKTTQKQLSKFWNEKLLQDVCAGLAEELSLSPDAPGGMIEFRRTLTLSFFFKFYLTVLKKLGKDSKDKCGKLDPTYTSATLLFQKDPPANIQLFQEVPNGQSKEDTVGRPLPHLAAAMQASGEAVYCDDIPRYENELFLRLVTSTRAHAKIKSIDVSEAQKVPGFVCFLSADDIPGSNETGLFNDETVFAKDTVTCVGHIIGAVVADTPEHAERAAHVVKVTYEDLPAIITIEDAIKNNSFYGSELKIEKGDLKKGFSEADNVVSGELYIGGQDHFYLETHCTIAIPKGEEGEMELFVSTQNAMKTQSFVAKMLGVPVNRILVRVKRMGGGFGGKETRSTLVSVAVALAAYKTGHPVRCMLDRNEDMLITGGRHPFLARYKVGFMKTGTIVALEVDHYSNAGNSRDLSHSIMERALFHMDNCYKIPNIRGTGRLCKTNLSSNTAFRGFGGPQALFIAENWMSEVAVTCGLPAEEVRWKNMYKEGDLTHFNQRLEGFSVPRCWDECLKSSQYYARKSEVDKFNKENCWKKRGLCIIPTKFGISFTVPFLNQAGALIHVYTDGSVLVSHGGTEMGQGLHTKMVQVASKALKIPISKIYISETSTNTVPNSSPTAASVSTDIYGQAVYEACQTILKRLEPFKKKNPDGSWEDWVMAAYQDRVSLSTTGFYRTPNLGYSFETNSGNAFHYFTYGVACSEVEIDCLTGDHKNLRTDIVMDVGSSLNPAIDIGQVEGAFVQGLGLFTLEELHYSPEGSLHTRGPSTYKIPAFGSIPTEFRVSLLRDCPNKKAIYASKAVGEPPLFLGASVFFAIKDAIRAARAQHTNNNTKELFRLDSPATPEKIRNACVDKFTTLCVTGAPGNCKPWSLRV
Protocol: A295 indicates the concentration of uric acid yielded by XOR. […] Uric acid production was measured at 295 nm at 25 °C.
Bovine milk was obtained from the animal farm of the Nippon Veterinary and Life Science University. […] The dehydrogenase form of the enzyme (XDH) was obtained by reacting XO immediately upon purification with 5 mM DTT at pH 8.5, 25 °C for 1 h. XO and XDH assays were carried out at 25 °C under aerobic conditions. […] A total of 500 μM β-NAD^+ was added to the same reaction solution for XDH activity. Physiological conditions such as pH 7.4 (0.1 M potassium phosphate buffer (KPB), 0.2 mM EDTA) and the addition of 50 μM β-NADH were also used. The activity was measured by following 295 nm and 340 nm on a UV-1800 or UV1900i spectrophotometer. […] In addition, the enzyme reaction solution was quenched with perchloric acid and neutralized with K2CO3, with products analyzed using HPLC as described below. Spectrophotometric data were analyzed using UV-Probe software Ver. 2.70 or LabSolutions UV-Vis Ver. […] Kinetic parameters were determined from nonlinear curve fits of raw data using GraphPad Prism 9 software.

[2] = tested on: hypoxanthine-guanine phosphoribosyltransferase (HGPRT); conditions: cited from earlier work
[3] = target: XO (Bos taurus, UniProt P80457); conditions: 3 μM allopurinol, 2 μM xanthine, 2.56 nM XO, pH 7.4, 37 °C
Sequence of XO (P80457 whole entry): as above

[4] = target: T2, Purine nucleoside phosphorylase (PNP) (Homo sapiens, UniProt P00491); design: method as in PMID 5653179, PMID 121041; conditions: cited from earlier work
T2 construct: purchased Sigma-Aldrich; host or cells: E. coli
T2 sequence (P00491 1-289): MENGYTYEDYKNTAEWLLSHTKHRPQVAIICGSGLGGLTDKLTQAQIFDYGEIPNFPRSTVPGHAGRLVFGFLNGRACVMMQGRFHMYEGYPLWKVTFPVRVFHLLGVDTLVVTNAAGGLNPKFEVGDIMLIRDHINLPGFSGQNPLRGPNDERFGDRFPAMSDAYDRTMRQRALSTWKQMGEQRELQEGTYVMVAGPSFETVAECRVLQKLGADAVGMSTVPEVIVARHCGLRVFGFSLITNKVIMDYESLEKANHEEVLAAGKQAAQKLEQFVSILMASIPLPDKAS

[5] = tested on: xanthine oxidase; design: method as in Graham et al. 64; conditions: ref Graham et al. 64; cited from earlier work
[6] = target: T2, Purine nucleoside phosphorylase (PNP); assay: PNP activity assay (inosine degradation, HPLC); assay type: biochemical; conditions: human recombinant PNP
Description: Plasma allopurinol never reaches that concentration, but oxypurinol concentrations could ([34], [35]). Although oxypurinol has been reported to have a stronger inhibitory effect than allopurinol ([32], [36]), the results were obtained prior to several reports on the cooperativity of PNP ([37]). […] This nonideal behavior may be a manifestation of the well-established allosteric properties of PNP ([37]).
Purine nucleoside phosphorylase (human, recombinantly expressed in E. coli) was purchased from Sigma-Aldrich. The reaction solution for inosine hydrolysis consisted of 50 mM KPB (pH 7.4), with varying concentrations of inosine and oxypurinol.
A295 indicates the concentration of uric acid yielded by XOR. […] A295 indicates the concentration of uric acid yielded by XOR. Figure S2. The XOR inhibition mode of oxypurinol.A–G, Lineweaver-Burk plots were generated to visualize data and estimated the inhibition patterns. Data are representative of least two independent experiments. […] The same as in A except that 1.23 nM XDH was used instead of XO and 500 μM NAD^+ was added to the reaction solution. […] The same as in D except that hypoxanthine was used instead of xanthine. […] The same as in D except that febuxostat was used instead of oxypurinol. […] The same as in F except that hypoxanthine was used instead of xanthine. Figure S3. […] Hypoxanthine, xanthine, and uric acid were measured by HPLC.

[7] = tested on: XOR; conditions: pH 8.5 and 25 °C; cited from earlier work
[8] = target: T3, XO type enzyme (Bos taurus, UniProt P80457); assay: half-life of the Ered•oxypurinol complex (activity recovery); assay type: biochemical, bovine
T3 construct: Bovine milk was obtained from the animal farm of the Nippon Veterinary and Life Science University; from tissue; host or cells: bovine milk
T3 sequence (P80457 whole entry): as the sequence (P80457 whole entry) above
Protocol: We next examined the half-life of the Ered•oxypurinol complex under more physiological conditions.
The main figure plots activity (%) against time.
Uric acid production was measured at 295 nm with UV-1800 Spectrophotometer at 25 °C. The activity recovery was followed overtime until the activity to flavin ratio reached approximately 200, indicating full reactivation.

[9] = xanthine 5 μM, inhibitor 2 μM, XO
[10] = xanthine 10 μM, inhibitor 2 μM, XO
[11] = xanthine 50 μM, inhibitor 2 μM, XO
[12] = xanthine 50 μM, inhibitor 10 μM, XO
[13] = xanthine 50 μM, inhibitor 50 μM, XO
[14] = xanthine 2 μM, inhibitor 2 μM, XO
[15] = xanthine 2 μM, inhibitor 10 μM, XO
[16] = xanthine 5 μM, inhibitor 10 μM, XO

For `Oc1ncnc2[nH]ncc12` [Allopurinol], the “effect on uric acid production” value ([1]; 10 μM or 50 μM inhibitor, 50 μM xanthine, XO) was “stops uric acid production immediately”, the “50% inhibition time of uric acid production” value [1, 9] was 1.0 min and the “stop time of uric acid production” value [1, 9] was 3.0 min. The “50% inhibition time of uric acid production” value [1, 10] was 1.4 min, the “stop time of uric acid production” value [1, 10] was 6.9 min and the “50% inhibition time of uric acid production” value [1, 11] was 3.8 min. For the same molecule, the “stop time of uric acid production” value [1, 11] was 14.9 min, the “50% inhibition time of uric acid production” value [1, 12] was 1.2 min and the “stop time of uric acid production” value [1, 12] was 4.5 min. The “50% inhibition time of uric acid production” value [1, 13] was 0.2 min, the “stop time of uric acid production” value [1, 13] was 0.7 min and the “substrate or inhibitor of HGPRT” value [2] was “is a substrate”. The “immediate accumulation of oxypurinol” value [3] was 0.5 µM, the “time at which xanthine was completely converted to uric acid” value [3] was 300 min and the “time for which uric acid production was stopped” value [3] was “up to 60 min”. The Ki [4] was > 200 µM.

For `O=c1[nH]c(=O)c2c[nH]nc2[nH]1` [Oxypurinol], the mode of inhibition ([1]; 2 μM xanthine, 0.1 M KPB pH 7.4) was “strictly competitive”, the “uric acid production in presence of inhibitor” value ([1]; 2 μM xanthine, 0.1 M KPB pH 7.4, 0 to 400 μM oxypurinol) was “uric acid production was evident even with 400 μM oxypurinol” and the “50% inhibition time of uric acid production” value [1, 14] was 9.0 min. For the same molecule, the “stop time of uric acid production” value [1, 14] was 58.3 min, the “50% inhibition time of uric acid production” value [1, 15] was 14.9 min and the “stop time of uric acid production” value [1, 15] was 89.0 min. For the same molecule, the “50% inhibition time of uric acid production” value ([1]; xanthine 2 μM, inhibitor 50 μM, XO) was 49.5 min, the “ratio of 50% inhibition time, oxypurinol (min)/allopurinol (min)” value (shortened to “ratio of 50% inhibition time, oxypurinol”) ([1]; xanthine 5 μM, inhibitor 2 μM) was 10.8 and the “ratio of stop time, oxypurinol (min)/allopurinol (min)” value ([1]; xanthine 5 μM, inhibitor 2 μM) was 25.9. For the same molecule, the “50% inhibition time of uric acid production” value [1, 9] was 10.8 min, the “stop time of uric acid production” value [1, 9] was 77.7 min and the “50% inhibition time of uric acid production” value [1, 16] was 20.1 min. The “stop time of uric acid production” value [1, 16] was 119.4 min, the “50% inhibition time of uric acid production” value ([1]; xanthine 5 μM, inhibitor 50 μM, XO) was 38.3 min and the “ratio of 50% inhibition time, oxypurinol” value ([1]; xanthine 10 μM, inhibitor 2 μM) was 10.9. The “ratio of stop time, oxypurinol (min)/allopurinol (min)” value ([1]; xanthine 10 μM, inhibitor 2 μM) was 14.7, the “50% inhibition time of uric acid production” value [1, 10] was 15.3 min and the “stop time of uric acid production” value [1, 10] was 101.4 min. For the same molecule, the “50% inhibition time of uric acid production” value ([1]; xanthine 10 μM, inhibitor 10 μM, XO) was 20.8 min, the “50% inhibition time of uric acid production” value ([1]; xanthine 10 μM, inhibitor 50 μM, XO) was 19.7 min and the “ratio of 50% inhibition time, oxypurinol” value ([1]; xanthine 50 μM, inhibitor 2 μM) was 8.6. The “50% inhibition time of uric acid production” value [1, 11] was 32.7 min, the “ratio of 50% inhibition time, oxypurinol” value ([1]; xanthine 50 μM, inhibitor 10 μM) was 10.8 and the “50% inhibition time of uric acid production” value [1, 12] was 13.0 min. The “ratio of 50% inhibition time, oxypurinol” value ([1]; xanthine 50 μM, inhibitor 50 μM) was 34.0, the “50% inhibition time of uric acid production” value [1, 13] was 6.8 min and the “oxypurinol concentration at which xanthine oxidase is maximally inhibited” value [5] was 33.75 µM. For the same molecule, the “inhibition of PNP” value [6] was “weakly but allosterically inhibits PNP”, the “mode of inhibition for inosine” value ([6]; 50 mM KPB pH 7.4, 0-1000 μM oxypurinol) was “competitive” and the “half-life for reoxidation / dissociation of the Ered•oxypurinol complex” value [7] was 5 h. For the same molecule, the “half-life of the Ered•oxypurinol complex” value ([8]; pH 7.4, 25 °C) was 9.2 h and 9.198 h, the “half-life of the Ered•oxypurinol complex” value ([8]; pH 7.4, 37 °C) was 1.17 h and 1.22 h and the “half-life of the Ered•oxypurinol complex” value ([8]; pH 8.5, 37 °C) was 1.17 h and 1.18 h.
